The values that follow come from patent US20250332223A1, “GHRH ANTAGONISTS FOR USE IN A METHOD OF TREATING SARCOIDOSIS” (University of Miami, priority 2019, published 2025).

“Also recorded” adds a separate entry of the source.

Assay [1] deals with sarcoidosis mice model. Description: Flow cytometry of lung single cells in sarcoidosis mice model (Example 5). It counts as in vivo. Conditions: MIA-602 5 μg, two weeks. Here is the method:
Mice were sacrificed on day 14, and the left lungs were harvested for pathology after perfusing the right ventricle with 10 ml of PBS.
The upper half of left lung tissue (without trachea, main bronchus and branches) was removed and rinsed by PBS to clean off blood. The tissue was minced and dispersed with a scissors to increase total surface area. To develop single cell suspension, the rubber end of a 5 ml plastic syringe was used to mesh cells through a 100 μm cell strainer with continuous rinse using ice-cold RPMI 1640. Cell suspension was again meshed through a 70 μm cell strainer and rinsed thoroughly with 3 ml of washing buffer containing DNAse followed by 15 ml of DNAse-free washing buffer. The sample was centrifuged at 286×g and 18° C. for 5 min, and the supernatant was discarded (Posel et al. J Vis Exp 2016: 53658).
The cells (10^6 cells/ml) were resuspended in 100 μl protein blocking solution with 5 μl fluorescent conjugated antibodies, CD8 (Biolegend Cat #100714, CD45 (Biolegend Cat #103130), CD68 (Biolegend Cat #137004), PD-1 (Biolegend Cat #135219), PD-L1 (Biolegend Cat #124308), CD4 (Biolegend Cat #100510), CD11b (Biolegend Cat #101243), CD11c (Biolegend Cat #117318), F4/80 (Biolegend Cat #123146), or IFNg (Biolegend Cat #505836). Samples were analyzed on a BD LSR II flow cytometer using BD FACSDiva software, and data analysis was performed using Flowjo software (TreeStar, Ashland, OR). Cell populations were identified using sequential gating strategy; the expression of activation markers was presented as median fluorescence intensity. Lung immune cells were classified based on FC marker expression as previously described (Misharin et al., Am J Respir Cell Mol Biol 2013; 49: 503-510).
Mice were grouped as control, challenged with microparticles and treated with saline, challenged and treated with MIA-602 (5 μg), and challenged and treated with methyl prednisolone (100 μg). After two weeks, lungs were harvested from all groups, and lung single cells were generated for flow cytometry analysis.

Assay [2] relates to mouse pulmonary granulomatous model. Description: Mouse pulmonary granulomatous model, H&E and IHC scoring of lung (Example 4). It counts as in vivo, C57B1/6 mice. How it is done: The detail of the methodology used for confocal microscopy is discussed in Zhang et al., Front Immunol 2019; 10: 2888. To summarize, mice were killed on day 14, and the left lungs were harvested. Lungs were filled with 10% buffered formalin and fixed in formalin for at least 72 h before IHC staining. H&E staining was used to determine inflammatory pathology.
(§1) For immunohistochemistry, 5-μm paraffin sections were processed by deparaffinization and rehydration followed by endogenous peroxidase blocking (1% H2O2 in methanol for 20 minutes) and antigen retrieval (boiled in 10 mM citrate buffer for 30 minutes). Tissue sections were blocked with 2% goat or horse serum (Vector Laboratories) and incubated with antibody CD68 (Proteintech, Cat #25747-1-AP), PD-1 (Cell Signaling, cat #84651), PD-L1 (Proteintech, Cat #17952-1-AP), CD30 (Lsbio, cat #LS-c162069) CD3 (Cell Signaling, cat #99940), iNOS (Invitrogen, cat #PAI-036), or Nitrotyrosine (Novus, NBP2-54606) over night at 4° C., washed with TBST five times, then exposed to secondary antibodies (Vector Laboratories, cat #PI-2000). Immunoreactivity was detected using the ABC Elite kit (Vector Laboratories). DAB was used as final chromogen and hematoxylin as the nuclear counterstain. Negative controls for all antibodies were made by replacing the primary antibody with non-immunogen IgG.
Lung inflammation was scored using the three fields with the highest infiltrate's intensity at 100× power magnification as previously described (Zhang et al., Front Immunol 2019; 10: 2888). The area of inflammation was measured and averaged for the three examined high-power fields.
A mouse pulmonary granulomatous model was established for studying type I IFN pathways after exposure to M. abscessus cell wall. The model is applicable for pulmonary sarcoidosis studies due to its characteristics of noninfectious lung granulomatous model. C57B1/6 mice were used to develop the model (Zhang et al., Front Immunol 2019; 10: 2888).
Mice were treated with 5 μg of a peptide of the disclosure, MIA-602, per day via intraperitoneal injection. After two weeks, the mice were sacrificed, and lung inflammation was graded by a lung pathologist. Lung samples were stained with H&E, CD68, PD1, PD-L1, and CD30, and scored based on percentage of cells expressing each marker.

Assay [3] deals with sarcoidosis mice model. Description: RNASeq transcriptomics of lung in sarcoidosis mice model (Example 7). Conditions: granuloma mice, daily MIA-602 5 μg intraperitoneal vs saline. Format: in vivo. How it is done:
RNA from mouse lungs were extracted using RNA Miniprep Plus Kit (Zymo Research). Briefly, whole lung was homogenized in TRI reagent and total RNA extraction was performed following the instructions provided by the manufacturer with additional DNase treatment. Quantity and quality of the samples were determined by NanoDrop spectrophotometer and Agilent Bioanalyzer 2100, respectively (Zhang et al., Front Immunol 2019; 10: 2888).
Preparation and sequencing of RNA libraries was performed. Briefly, total RNA quantity and quality were determined using the Agilent Bioanalyzer. At least 300 ng of total RNA was used as input for the KAPA RNA HyperPrep Kit with RiboErase (HMR) according to manufacturer's protocol to create ribosomal RNA-depleted sequencing libraries. Sequencing was performed on the Illumina NextSeq 500, generating ˜40 million single-end 75 base reads per sample. Sequencing data were processed with a bioinformatics pipeline including quality control, alignment to the […], and gene quantification. Count data was inputted into edgeR software for differential expression analysis. Counts were normalized using the trimmed mean of M-values (TMM) method to account for compositional difference between the libraries and paired differential expression analysis using a generalized linear model with sample as a blocking factor. […]

The test system of assay [4] is sarcoidosis mice model. Description: NOS2 and nitrotyrosine staining of lung in sarcoidosis mice model (Example 6). Format: in vivo. Conditions: daily intraperitoneal MIA-602 5 μg, lung harvested after three weeks. How it is done: as §1
Inducible nitric oxide synthases (iNOS) produces nitric oxide and has a crucial role in granuloma development. iNOS is expressed in macrophages after exposure to bacterial lipopolysaccharides and IFNγ (Facchetti et al., Am J Pathol 1999; 154: 145-152). […] Lung tissue was harvested after three weeks and tissue stained with NOS2 and nitrotyrosine. […] The finding was not statistically significant.

For “[PhAc-Ada^0-Tyr^1, D-Arg^2, Fpa5^6, Ala^8, Har^9, Tyr(Me)^10, His^11, Orn^12, Abu^15, His^20, Orn^21, Nle^27, D-Arg^28, Har^29]hGH-RH(1-29)NH2 [MIA-602]”, the “population of CD45+CD68 cells” value in assay [1] (FIG. 6A) is reported as “significantly reduced”. The “percentage of CD45+CD68+ cells that expressed PD-1” value in assay [1] (FIG. 6B) was “significantly increased”. Moreover, the “population of CD45+CD68+PD-L1 cells” value in assay [1] (FIG. 6C) is reported as “a higher percentage was detected”. In addition, the lung inflammation score result in assay [2] (5 μg MIA-602 per day intraperitoneal, two weeks, vs granuloma group, H&E) is recorded as “lower inflammation scores; also recorded: almost normalized”. Moreover, the “CD30 cells in lung” value in assay [2] (5 μg MIA-602 per day intraperitoneal, two weeks, IHC) is listed as “nonsignificantly reduced”. Besides, in assay [2] (5 μg MIA-602 per day intraperitoneal, two weeks, IHC, changes not statistically significant), the “percentage of CD68+ cells in the lung” value is listed as “decreased”. Moreover, the “PD-1+ cells in the lung” value in assay [2] (5 μg MIA-602 per day intraperitoneal, two weeks, IHC, same pattern as CD68+ (increased in granuloma, decreased with MIA-602, not significant)) was “This pattern was seen”. In addition, in assay [2] (summary of animal model study), the “inflammatory cell numbers in lung tissue” value was “reduced inflammatory cell numbers significantly”. In assay [3], the genes downregulated came out at 293 genes and the genes upregulated came to 778 genes. The NOS2 expression result in assay [4] (FIG. 7) is on record as “reduced following MIA-602 treatment. The finding was not statistically significant”. Further, the nitrotyrosine levels result in assay [4] (FIG. 8) is reported as “reduced the nitrotyrosine levels, but the reduction was not statistically significant”.
